Laboratory results taken from patent US20100256357A1, “HETEROCYCLES USEFUL AS INHIBITORS OF CARBONIC ANHYDRASE” (Agouron Pharmaceuticals, Inc., priority 2006, published 2010).
Where two headings read alike, the source gives them in different places.

Molecular target: T1, human CA-II (Homo sapiens, UniProt P00918)
T1 construct: purchased Sigma-Aldrich C6165
Test: Carbonic Anhydrase-II (CA-II) Fluorimetric Assay-IC50 Determination
Format: biochemical
Settings: for inhibition at 0.01 µM: at 10 nM (c7), read-out: CA-II % inhibition at concentration of column 7
Description: Carbonic Anhydrase-II (CA-II) Fluorimetric Assay-IC50 Determination
Compounds were diluted in DMSO at the concentration of 1 mM, then 50 μM and transferred to a 96-well plate for further dilutions (1:3 dilution, 11 points) in duplicate. Highest final concentration of compound in this CA-II Fluorimetric assay is 1 μM. Assays were conducted in a final volume of 100 μL in 50 mM Tris/HCl (pH 7.6), 100 mM Na2SO4 and 0.005% Tween-20 in a 96-well black assay plate. Fluorescein diacetate was used as the substrate. Enzyme inhibition was determined by pipetting 8 μL of human CA-II (5 nM, from Sigma-Aldrich, product #: C6165) into assay plate contained 2 μL of compound and 2 μL of substrate (10 μM) in 88 μL of assay buffer. The rate of the hydrolysis of fluorescein diacetate were measured spectrophometrically at 488 nm (excitation), 538 nm (emission) and 530 nm (cutoff) using a Molecular Devices SpectraMax M2 fluorescence reader at 25° C.

[1] = given instead of Kd (ND), read-out: CA-II IC50
[2] = Kd ND, IC50 given instead, read-out: CA-II IC50 (where Kd is ND)

SMILES | inhibition at 0.01 µM [%] | IC50 [1] [nM] | IC50 [2] [nM]
CN(CC(C)(O)c1ccccc1)C(=O)c1nc(Cc2ccccc2)n(-c2ccc(S(N)(=O)=O)cc2)n1 (centres unmarked) [Example R-54, 1-[4-(aminosulfonyl)phenyl]-5-benzyl-N-(2-hydroxy-2-phenylpropyl)-N-methyl-1H-124-triazole-3-carboxamide] | 97 | – | –
Cc1csc(CN(C)C(=O)c2nc(Cc3ccccc3)n(-c3ccc(S(N)(=O)=O)cc3)n2)n1 [Example R-56, 1-[4-(aminosulfonyl)phenyl]-5-benzyl-N-methyl-N-[(4-methyl-13-thiazol-2-yl)methyl]-1H-124-triazole-3-carboxamide] | 95 | – | –
CCCN(CCc1ccccn1)C(=O)c1nc(Cc2ccccc2)n(-c2ccc(S(N)(=O)=O)cc2)n1 [Example R-58, 1-[4-(aminosulfonyl)phenyl]-5-benzyl-N-propyl-N-(2-pyridin-2-ylethyl)-1H-124-triazole-3-carboxamide] | 98 | – | –
CN(CCc1cn[nH]c1)C(=O)c1nc(Cc2ccccc2)n(-c2ccc(S(N)(=O)=O)cc2)n1 [Example R-62, 1-[4-(aminosulfonyl)phenyl]-5-benzyl-N-methyl-N-[2-(1H-pyrazol-4-yl)ethyl]-1H-124-triazole-3-carboxamide] | 96 | – | –
Cc1noc(C2CCN(C(=O)c3nc(Cc4ccccc4)n(-c4ccc(S(N)(=O)=O)cc4)n3)C2)n1 (centres unmarked) [Example R-63, 4-(5-benzyl-3-{[3-(3-methyl-124-oxadiazol-5-yl)pyrrolidin-1-yl]carbonyl}-1H-124-triazol-1-yl)benzenesulfonamide] | 95 | – | –
Cc1cc(CN(C)C(=O)c2nc(Cc3ccccc3)n(-c3ccc(S(N)(=O)=O)cc3)n2)on1 [Example R-64, 1-[4-(aminosulfonyl)phenyl]-5-benzyl-N-methyl-N-[(3-methylisoxazol-5-yl)methyl]-1H-124-triazole-3-carboxamide] | 94 | 2.95 | –
Cc1ncsc1CCN(C)C(=O)c1nc(Cc2ccccc2)n(-c2ccc(S(N)(=O)=O)cc2)n1 [Example R-65, 1-[4-(aminosulfonyl)phenyl]-5-benzyl-N-methyl-N-[2-(4-methyl-13-thiazol-5-yl)ethyl]-1H-124-triazole-3-carboxamide] | 90 | – | –
Cc1cc(C)n(CCN(C)C(=O)c2nc(Cc3ccccc3)n(-c3ccc(S(N)(=O)=O)cc3)n2)n1 [Example R-66, 1-[4-(aminosulfonyl)phenyl]-5-benzyl-N-[2-(35-dimethyl-1H-pyrazol-1-yl)ethyl]-N-methyl-1H-124-triazole-3-carboxamide] | 88 | 3.55 | –
NS(=O)(=O)c1ccc(-n2nc(C(=O)N3CCCC(c4cc[nH]n4)C3)nc2Cc2ccccc2)cc1 (centres unmarked) [Example R-67, 4-(5-benzyl-3-{[3-(1H-pyrazol-3-yl)piperidin-1-yl]carbonyl}-1H-124-triazol-1-yl)benzenesulfonamide] | 97 | 3.72 | –
CC(C)C1(CO)CCN(C(=O)c2nc(Cc3ccccc3)n(-c3ccc(S(N)(=O)=O)cc3)n2)CC1 [Example R-73, 4-(5-benzyl-3-{[4-(hydroxymethyl)-4-isopropylpiperidin-1-yl]carbonyl}-1H-124-triazol-1-yl)benzenesulfonamide] | – | – | 3.5
NS(=O)(=O)c1ccc(-n2nc(C(=O)N3CC(Cc4ccccc4)C3)nc2Cc2ccccc2)cc1 [Example R-91, 4-{5-benzyl-3-[(3-benzylazetidin-1-yl)carbonyl]-1H-124-triazol-1-yl}benzenesulfonamide] | – | – | 3.19
CC(C)(C)N(CCC#N)C(=O)c1nc(Cc2ccccc2)n(-c2ccc(S(N)(=O)=O)cc2)n1 [Example R-96, 1-[4-(aminosulfonyl)phenyl]-5-benzyl-N-(tert-butyl)-N-(2-cyanoethyl)-1H-124-triazole-3-carboxamide] | – | – | 3.34

Next, values leading:

inhibition at 0.01 µM [%] | IC50 [1] [nM] | IC50 [2] [nM] | SMILES
95 | – | – | Cc1cc(CN(C)C(=O)c2nc(Cc3ccccc3)n(-c3ccc(S(N)(=O)=O)cc3)n2)n[nH]1 [Example R-50, 1-[4-(aminosulfonyl)phenyl]-5-benzyl-N-methyl-N-[(5-methyl-1H-pyrazol-3-yl)methyl]-1H-124-triazole-3-carboxamide]
97 | – | – | CCCc1cc(CN(C)C(=O)c2nc(Cc3ccccc3)n(-c3ccc(S(N)(=O)=O)cc3)n2)n[nH]1 [Example R-51, 1-[4-(aminosulfonyl)phenyl]-5-benzyl-N-methyl-N-[(5-propyl-1H-pyrazol-3-yl)methyl]-1H-124-triazole-3-carboxamide]
96 | 2.83 | – | NS(=O)(=O)c1ccc(-n2nc(C(=O)N3CCc4ccccc4C3)nc2Cc2ccccc2)cc1 [Example R-52, 4-[5-benzyl-3-(34-dihydroisoqionolin-2(1H)-ylcarbonyl)-1H-124-triazol-1-yl]benzenesulfonamide]
92 | 3.36 | – | NS(=O)(=O)c1ccc(-n2nc(C(=O)N3CCCCC3Cc3ccccc3)nc2Cc2ccccc2)cc1 (centres unmarked) [Example R-53, 4-(5-benzyl-3-[(2-benzylpiperidin-1-yl)carbonyl]-1H-124-triazol-1-yl)benzenesulfonamide]
97 | – | – | NS(=O)(=O)c1ccc(-n2nc(C(=O)N3CCC(c4ccccn4)C3)nc2Cc2ccccc2)cc1 (centres unmarked) [Example R-55, 4-(5-benzyl-3-[(3-pyridin-2-ylpyrrolidin-1-yl)carbonyl]-1H-124-triazol-1-yl)benzenesulfonamide]
96 | – | – | NS(=O)(=O)c1ccc(-n2nc(C(=O)N3CCc4nocc4C3)nc2Cc2ccccc2)cc1 [Example R-57, 4-[5-benzyl-3-(67-dihydroisoxazolo[43-c]pyridin-5(4H)-ylcarbonyl)-1H-124-triazol-1-yl]benzenesulfonamide]
97 | – | – | NS(=O)(=O)c1ccc(-n2nc(C(=O)N3CC(CO)C(c4ccccn4)C3)nc2Cc2ccccc2)cc1 (centres unmarked) [Example R-59, 4-(5-benzyl-3-{[(3R4R)-3-(hydroxymethyl)-4-pyridin-2-ylpyrrolidin-1-yl]carbonyl}-1H-124-triazol1-yl)benzenesulfonamide]
92 | – | – | Cc1nc(CN(C)C(=O)c2nc(Cc3ccccc3)n(-c3ccc(S(N)(=O)=O)cc3)n2)cs1 [Example R-60, 1-[4-(aminosulfonyl)phenyl]-5-benzyl-N-methyl-N-[(2-methyl-13-thiazol-4-yl)methyl]-1H-124-triazole-3-carboxamide]
94 | – | – | NS(=O)(=O)c1ccc(-n2nc(C(=O)N3CCc4conc4CC3)nc2Cc2ccccc2)cc1 [Example R-61, 4-[5-benzyl-3-(4578-tetrahydro-6H-isoxazolo[34-d]azepin-6-ylcarbonyl)-1H-124-triazol-1-yl]benzenesulfonamide]
92 | 3.75 | – | NS(=O)(=O)c1ccc(-n2nc(C(=O)N3CCCC3Cc3cccnc3)nc2Cc2ccccc2)cc1 (centres unmarked) [Example R-68, 4-(5-benzyl-3-{[2-(pyridin-3-ylmethyl)pyrrolidin-1-yl]carbonyl}-1H-124-triazol-1-yl)benzenesulfonamide]
97 | 3.49 | – | NS(=O)(=O)c1ccc(-n2nc(C(=O)N3CCC(c4cccnc4)C3)nc2Cc2ccccc2)cc1 (centres unmarked) [Example R-69, 4-{5-benzyl-3-[(3-pyridin-3-ylpyrrolidin-1-yl)carbonyl]-1H-124-triazol-1-yl}benzenesulfonamide]
94 | 3.06 | – | CCc1nc(CN(C)C(=O)c2nc(Cc3ccccc3)n(-c3ccc(S(N)(=O)=O)cc3)n2)no1 [Example R-70, 1-[4-(aminosulfonyl)phenyl]-5-benzyl-N-[(5-ethyl-124-oxadiazol-3-yl)methyl]-N-methyl-1H-124-triazole-3-carboxamide]
– | – | 3.43 | N#CCCN(C(=O)c1nc(Cc2ccccc2)n(-c2ccc(S(N)(=O)=O)cc2)n1)C1CCCC1 [Example R-74, 1-[4-(aminosulfonyl)phenyl]-5-benzyl-N-(2-cyanoethyl)-N-cyclopentyl-1H-124-triazole-3-carboxamide]
– | – | 3.35 | CCCN(CC1CCCO1)C(=O)c1nc(Cc2ccccc2)n(-c2ccc(S(N)(=O)=O)cc2)n1 (centres unmarked) [Example R-95, 1-[4-(aminosulfonyl)phenyl]-5-benzyl-N-propyl-N-(tetrahydrofuran-2-ylmethyl)-1H-124-triazole-3-carboxamide]
– | – | 3.48 | CN(CC(F)(F)F)C(=O)c1nc(Cc2ccccc2)n(-c2ccc(S(N)(=O)=O)cc2)n1 [Example R-101, 1-[4-(aminosulfonyl)phenyl]-5-benzyl-N-methyl-N-(222-trifluoroethyl)-1H-124-triazole-3-carboxamide]
– | – | 3 | CCN(Cc1ccccc1)C(=O)c1nc(Cc2ccccc2)n(-c2ccc(S(N)(=O)=O)cc2)n1 [Example R-102, 1-[4-(aminosulfonyl)phenyl]-N5-dibenzyl-N-ethyl-1H-124-triazole-3-carboxamide]
– | – | 3.12 | COc1cccc(CN(C)C(=O)c2nc(Cc3ccccc3)n(-c3ccc(S(N)(=O)=O)cc3)n2)c1 [Example R-103, 1-[4-(aminosulfonyl)phenyl]-5-benzyl-N-(3-methoxybenzyl)-N-methyl-1H-124-triazole-3-carboxamide]
– | – | 3.51 | CC(C)C1CCCCN1C(=O)c1nc(Cc2ccccc2)n(-c2ccc(S(N)(=O)=O)cc2)n1 (centres unmarked) [Example R-104]
